Measured values reported in ChEMBL document CHEMBL3758118, “Effects of a novel carbocyclic analog of pyrrolo[2,3-d]pyrimidine nucleoside on pleiotropic induction of cell death in prostate cancer cells with different androgen responsiveness” (2016).
The source made the active and inactive calls. No cut-off for these calls is given here.

Experiments:
[1] = Cell cycle distribution in human LNCaP C4-2 cells assessed as accumulation at sub-G1 phase at 9 uM for 48 hrs in presence of 100 uM AR inhibitor flutamide by propidium-iodide staining based flow cytometry; format: functional
[2] = Cell cycle distribution in human LNCaP C4-2 cells assessed as accumulation at sub-G1 phase at 9 uM after 48 hrs by propidium iodide staining based flow cytometry; format: functional
DU-145 [3] = assay: Induction of apoptosis in human DU145 cells assessed as DNA fragmentation at 6 uM after 48 hrs in presence of 5 mM autophagy inhibitor 3-methyladenine by TUNEL assay; format: functional, cell-based
LNCaP [4] = assay: Induction of apoptosis in human LNCAP cells assessed as increase in cleaved PARP level at 6 uM after 24 hrs by western blotting analysis; format: functional, cell-based
LNCaP [5] = assay: Antiproliferative activity against human LNCaP C4-2 cells assessed as cell viability at 9 uM after 48 hrs by MTT assay; format: functional, cell-based
LNCaP [6] = assay: Induction of apoptosis in human LNCAP cells assessed as caspase-9 expression at 6 uM after 24 hrs cell pretreated with 100 uM AR inhibitor flutamide by western blot analysis; format: functional, cell-based
LNCaP [7] = assay: Induction of apoptosis in human LNCAP cells assessed as increase active caspase3 level at 6 uM after 24 hrs by western blotting analysis; format: functional, cell-based
LNCaP [8] = assay: Antiproliferative activity against human LNCaP C4-2 cells assessed as cell viability at 6 uM after 24 hrs by MTT assay; format: functional, cell-based
LNCaP [9] = assay: Cell cycle distribution in human LNCAP cells assessed as accumulation at sub-G1 phase at 6 uM after 24 hrs in presence of 100 uM AR inhibitor flutamide by propidium-iodide staining based flow cytometry; format: functional
LNCaP [10] = assay: Induction of apoptosis in human LNCAP cells assessed as p21(Cip1) mRNA level at 6 uM in presence of 100 uM AR inhibitor flutamide by semiquantitative RT-PCR technique relative to control; format: functional
LNCaP [11] = assay: Induction of apoptosis in human LNCAP cells assessed as caspase-3 expression at 6 uM after 24 hrs cell pretreated with 100 uM AR inhibitor flutamide by western blot analysis; format: functional, cell-based
DU-145 [12] = assay: Induction of apoptosis in human DU145 cell assessed as p21(Cip1) expression at 6 uM after 24 hrs by western blotting analysis; format: functional, cell-based
LNCaP [13] = assay: Induction of apoptosis in human LNCaP C4-2 cells assessed as increase p21(Cip1) mRNA level at 9 uM by semiquantitative RT-PCR technique relative to control; format: functional
DU-145 [14] = assay: Induction of apoptosis in human DU145 cells assessed as accumulation of autophagic vacuoles in cytoplasm at 6 uM after 24 hrs by fluorescence microscopic analysis; format: functional, cell-based
LNCaP [15] = assay: Induction of apoptosis in human LNCaP C4-2 cells assessed as increase in p21(Cip1) expression at 9 uM after 48 hrs by western blotting analysis; format: functional, cell-based
LNCaP [16] = assay: Induction of apoptosis in human LNCaP C4-2 cells assessed as increase in cleaved PARP level at 9 uM after 48 hrs by western blot analysis; format: functional, cell-based
LNCaP [17] = assay: Induction of apoptosis in human LNCAP cells assessed as formation of crescent shaped apoptotic bodies at 6 uM after 24 hrs by transmission electron microscopic analysis; format: functional, cell-based
DU-145 [18] = assay: Induction of apoptosis in human DU145 cells assessed as chromatin condensation at 6 uM after 24 hrs by transmission electron microscopic analysis; format: functional, cell-based
DU-145 [19] = assay: Induction of apoptosis in human DU145 cells assessed as active caspase-3 level at 6 um after 24 hrs by western blotting analysis; format: functional, cell-based
LNCaP [20] = assay: Induction of apoptosis in human LNCAP cells assessed as chromatin condensation at 6 uM after 24 hrs by transmission electron microscopic analysis; format: functional, cell-based
LNCaP [21] = assay: Induction of apoptosis in human LNCaP C4-2 cells assessed as increase in cleaved PARP level at 9 uM after 48 hrs in presence of 100 uM AR inhibitor flutamide by western blot analysis; format: functional, cell-based
LNCaP [22] = assay: Induction of apoptosis in human LNCaP C4-2 cells assessed as increase in p21(Cip1) expression at 9 uM after 48 hrs in presence of 100 uM AR inhibitor flutamide by western blotting analysis; format: functional, cell-based
LNCaP [23] = assay: Induction of apoptosis in human LNCaP C4-2 cells assessed as increase in caspase3 level at 9 uM after 48 hrs by western blotting analysis; format: functional, cell-based
DU-145 [24] = assay: Induction of apoptosis in human DU145 cells assessed as cleaved PARP level at 6 uM after 24 hrs by western blotting analysis; format: functional, cell-based
LNCaP [25] = assay: Induction of apoptosis in human LNCaP C4-2 cells assessed as increase in caspase3 level at 9 uM after 48 hrs in presence of 100 uM AR inhibitor flutamide by western blot analysis; format: functional, cell-based
DU-145 [26] = assay: Induction of apoptosis in human DU145 cells assessed as formation of crescent shaped apoptotic bodies at 6 uM after 24 hrs by transmission electron microscopic analysis; format: functional, cell-based
DU-145 [27] = assay: Induction of apoptosis in human DU145 cells assessed as increase in cleaved PARP level at 6 uM after 48 hrs by western blotting analysis; format: functional, cell-based
LNCaP [28] = assay: Induction of apoptosis in human LNCAP cells assessed as cleaved PARP expression at 6 uM after 24 hrs cell pretreated with 100 uM AR inhibitor flutamide by western blot analysis; format: functional, cell-based
LNCaP [29] = assay: Antiproliferative activity against human LNCAP cells assessed as cell viability at 6 uM after 24 hrs by MTT assay; format: functional, cell-based
LNCaP [30] = assay: Induction of apoptosis in human LNCAP cells assessed as increase in p21(Cip1) mRNA level at 6 uM by semiquantitative RT-PCR technique relative to control; format: functional
LNCaP [31] = assay: Induction of apoptosis in human LNCAP cells assessed as caspase-8 expression at 6 uM after 24 hrs cell pretreated with 100 uM AR inhibitor flutamide by western blot analysis; format: functional, cell-based
DU-145 [32] = assay: Induction of apoptosis in human DU145 cells assessed as increase in p21(Cip1) expression at 6 uM after 48 hrs by western blotting analysis; format: functional, cell-based
LNCaP [33] = assay: Antiproliferative activity against human LNCaP C4-2 cells assessed as cell viability at 6 uM after 48 hrs by MTT assay; format: functional, cell-based
LNCaP [34] = assay: Induction of apoptosis in human LNCAP cells assessed as increase in p21(Cip1) expression at 6 uM after 24 hrs by western blotting analysis; format: functional, cell-based
LNCaP [35] = assay: Induction of apoptosis in human LNCAP cells assessed as p21(Cip1) expression at 6 uM after 24 hrs cell pretreated with 100 uM AR inhibitor flutamide by western blot analysis; format: functional, cell-based
LNCaP [36] = assay: Induction of apoptosis in human LNCAP cells assessed as caspase3 level at 6 uM by western blot analysis; format: functional, cell-based
LNCaP [37] = assay: Induction of apoptosis in human LNCAP cells assessed as cleaved PARP level at 6 uM by western blot analysis; format: functional, cell-based
LNCaP [38] = assay: Induction of apoptosis in human LNCAP cells assessed as p21(Cip1) expression at 6 uM by western blotting analysis; format: functional, cell-based

In the case of `NC(=O)c1c(Br)nc2n(C3CCCC3)cnc(N)c1-2`, the Activity [1] is reported as “Active”, the Activity [2] is reported as 30% and the Activity (DU-145 [3]) is reported as “inactive”. For the same compound, the Activity (LNCaP [4]) was “Active”, the Activity (LNCaP [5]) was “Active” and the Activity (LNCaP [6]) was “inactive”. For the same compound, the Activity (LNCaP [7]) was “Active”, the Activity (LNCaP [8]) was “inactive” and the Activity (LNCaP [9]) was “inactive”. The “fold change (FC)” value (LNCaP [10]) was 0.38, the Activity (LNCaP [11]) was “inactive” and the Activity (DU-145 [12]) was “inactive”. For the same compound, the “fold change (FC)” value (LNCaP [13]) was 23, the Activity (DU-145 [14]) was “Active” and the Activity (LNCaP [15]) was “Active”. The Activity (LNCaP [16]) was “Active”, the Activity (LNCaP [17]) was “Active” and the Activity (DU-145 [18]) was “inactive”. The Activity (DU-145 [19]) was “inactive”, the Activity (LNCaP [20]) was “Active” and the Activity (LNCaP [21]) was “Active”. The Activity (LNCaP [22]) was “Active”, the Activity (LNCaP [23]) was “Active” and the Activity (DU-145 [24]) was “inactive”. For the same compound, the Activity (LNCaP [25]) was “Active”, the Activity (DU-145 [26]) was “inactive” and the Activity (DU-145 [27]) was “Active”. The Activity (LNCaP [28]) was “inactive”, the Activity (LNCaP [29]) was “Active” and the “fold change (FC)” value (LNCaP [30]) was 56.98. For the same compound, the Activity (LNCaP [31]) was “inactive”, the Activity (DU-145 [32]) was “Active” and the Activity (LNCaP [33]) was “Active”. The Activity (LNCaP [34]) was “Active” and the Activity (LNCaP [35]) was “inactive”.

In the case of `NC(=O)c1c(Br)n(C2CCCC2)c2ncnc(N)c12`, the Activity (LNCaP [36]) is reported as “inactive”, the Activity (LNCaP [37]) is reported as “inactive” and the Activity (LNCaP [38]) is reported as “inactive”.
